Results: PubChem BioAssay (NCI)
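Growth conditions: 96-well plates. Treatment: test compound, 48 hours, 5 concentrations. Analysis: linear interpolation between bracketing concentrations; unreached endpoints set to highest concentration. TGI: concentration producing complete growth inhibition.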

Experiments:
Assay in all cases: NCI-60 cell line screen, 48 h
[1] = system: HL-60(TB) leukemia
[2] = system: SNB-19 CNS
[3] = system: A549 NSCLC
[4] = system: SNB-78 CNS
[5] = system: NCI-H23 lung
[6] = system: MALME-3M melanoma
[7] = system: COLO 205 colon
[8] = system: RPMI-8226 leukemia
[9] = system: A498 renal
[10] = system: XF 498 CNS
[11] = system: HOP-18 NSCLC
[12] = system: HOP-92 NSCLC
[13] = system: IGROV1 ovarian
[14] = system: OVCAR-3 ovarian
[15] = system: M14 melanoma
[16] = system: OVCAR-8 ovarian
[17] = system: NCI-H522 lung
[18] = system: HOP-62 NSCLC
[19] = system: DLD-1 colon
[20] = system: DMS 114 small cell lung
[21] = system: SN12C renal
[22] = system: CAKI-1 renal
[23] = system: HCT-116 colon
[24] = system: OVCAR-4 ovarian
[25] = system: TK-10 renal
[26] = system: MOLT-4 leukemia
[27] = system: SK-MEL-28 melanoma
[28] = system: SR leukemia
[29] = system: SK-MEL-5 melanoma
[30] = system: CCRF-CEM leukemia
[31] = system: SK-OV-3 ovarian
[32] = system: SNB-75 CNS
[33] = system: ACHN renal
[34] = system: UACC-257 melanoma
[35] = system: HT29 colon
[36] = system: U251 CNS
[37] = system: UO-31 renal
[38] = system: LOX IMVI melanoma
[39] = system: DMS 273 small cell lung
[40] = system: UACC-62 melanoma
[41] = system: LXFL 529 NSCLC
[42] = system: SW-620 colon
[43] = system: SF-295 CNS
[44] = system: 786-0 renal
[45] = system: SF-268 CNS
[46] = system: SF-539 CNS
[47] = system: K-562 leukemia
[48] = system: KM20L2 colon
[49] = system: NCI-H460 lung
[50] = system: M19-MEL melanoma
[51] = system: KM12 colon
[52] = system: OVCAR-5 ovarian
[53] = system: NCI-H226 lung
[54] = system: DU-145 prostate
[55] = system: NCI/ADR-RES ovarian
[56] = system: SK-MEL-2 melanoma
[57] = system: BT-549 breast
[58] = system: RXF 393 renal
[59] = system: MDA-N
[60] = system: MDA-MB-435
[61] = system: HCC-2998 colon
[62] = system: PC-3 prostate
[63] = system: HCT-15 colon
[64] = system: T-47D breast
[65] = system: EKVX NSCLC
[66] = system: HS 578T breast
[67] = system: MDA-MB-231 breast
[68] = system: MCF7 breast

SMILES: CC(=O)OCC1OC(n2cc(F)c(=O)[nH]c2=O)C(NC(=O)N(CCCl)N=O)C(OC(C)=O)C1OC(C)=O (stereo not given)
- TGI [1]: > 100 µM
- TGI [2]: > 100 µM
- TGI [3]: > 100 µM
- TGI [4]: > 100 µM
- TGI [5]: > 100 µM
- TGI [6]: > 100 µM
- TGI [7]: > 100 µM
- TGI [8]: > 100 µM
- TGI [9]: > 100 µM
- TGI [10]: > 100 µM
- TGI [11]: > 100 µM
- TGI [12]: > 100 µM
- TGI [13]: > 100 µM
- TGI [14]: > 100 µM
- TGI [15]: > 100 µM
- TGI [16]: > 100 µM
- TGI [17]: > 100 µM
- TGI [18]: > 100 µM
- TGI [19]: > 100 µM
- TGI [20]: > 100 µM
- TGI [21]: > 100 µM
- TGI [22]: > 100 µM
- TGI [23]: > 100 µM
- TGI [24]: > 100 µM
- TGI [25]: > 100 µM
- TGI [26]: > 100 µM
- TGI [27]: > 100 µM
- TGI [28]: > 100 µM
- TGI [29]: > 100 µM
- TGI [30]: > 100 µM
- TGI [31]: > 100 µM
- TGI [32]: 78.3 µM
- TGI [33]: > 100 µM
- TGI [34]: > 100 µM
- TGI [35]: > 100 µM
- TGI [36]: > 100 µM
- TGI [37]: > 100 µM
- TGI [38]: > 100 µM
- TGI [39]: > 100 µM
- TGI [40]: > 100 µM
- TGI [41]: > 100 µM
- TGI [42]: > 100 µM
- TGI [43]: > 100 µM
- TGI [44]: > 100 µM
- TGI [45]: > 100 µM
- TGI [46]: > 100 µM
- TGI [47]: > 100 µM
- TGI [48]: > 100 µM
- TGI [49]: > 100 µM
- TGI [50]: > 100 µM
- TGI [51]: > 100 µM

SMILES: Cc1cc(C)n(CC(Cn2nc(C)cc2C)=C(/C(Cl)=C(/Cl)Nc2ccc([N+](=O)[O-])cc2)[N+](=O)[O-])n1
- TGI [1]: 4.3 µM
- TGI [2]: 17.6 µM
- TGI [3]: 13.3 µM
- TGI [52]: 33.2 µM
- TGI [53]: 49.4 µM
- TGI [5]: 8.03 µM
- TGI [6]: 13.4 µM
- TGI [54]: 14 µM
- TGI [7]: 5.36 µM
- TGI [8]: 5.12 µM
- TGI [9]: 11.2 µM
- TGI [12]: 8.48 µM
- TGI [13]: 8.17 µM
- TGI [14]: 15.2 µM
- TGI [15]: 16.6 µM
- TGI [16]: 14.6 µM
- TGI [55]: > 32.8 µM
- TGI [56]: 11.8 µM
- TGI [17]: 5.01 µM
- TGI [18]: 22.2 µM
- TGI [21]: 17.6 µM
- TGI [57]: 15.7 µM
- TGI [22]: 5.98 µM
- TGI [23]: 14.3 µM
- TGI [24]: 3.4 µM
- TGI [25]: 12.5 µM
- TGI [26]: 4.77 µM
- TGI [27]: 29 µM
- TGI [28]: 8.49 µM
- TGI [29]: 4.97 µM
- TGI [30]: 2.48 µM
- TGI [31]: 14.2 µM
- TGI [58]: 12.3 µM
- TGI [32]: 14.3 µM
- TGI [59]: 15.3 µM
- TGI [33]: 11.6 µM
- TGI [34]: 12.3 µM
- TGI [60]: 8.95 µM
- TGI [61]: 11.7 µM
- TGI [62]: 12.7 µM
- TGI [63]: > 31.5 µM
- TGI [35]: 11.3 µM
- TGI [64]: 17.3 µM
- TGI [36]: 13.5 µM
- TGI [37]: 6.76 µM
- TGI [38]: 6.06 µM
- TGI [65]: 13.8 µM
- TGI [66]: 33.2 µM
- TGI [40]: 15.4 µM
- TGI [42]: 17.7 µM
- TGI [43]: 20.9 µM
- TGI [67]: 25.5 µM
- TGI [68]: 14.3 µM
- TGI [44]: 18.9 µM
- TGI [45]: 19.8 µM
- TGI [46]: 9.27 µM
- TGI [47]: 11.5 µM
- TGI [49]: 10.9 µM
- TGI [51]: 6.55 µM
